Assay results: article PMC8582287 (International journal of antimicrobial agents, 2020)
Entries after “also recorded” stand apart in the source; their conditions may differ. Where two headings read alike, the source gives them in different places.

Key:
[1] = tested on: human Ether-à-go-go Related Gene (hERG); conditions: cited from earlier work
[2] = tested on: zebrafish (Danio rerio) embryos; experiment: Zebrafish embryo development test with impact score Si; assay type: in vivo; conditions: for Embryo toxicity in the zebrafish assay (in words) / Lowest concentration exerting a negative Si: 0.2-50 μM; for Embryo toxicity in the zebrafish assay (in words): 96hpf; for Lowest concentration exerting a negative Si: zebrafish embryos, until 96h post fertilization; for Embryonal alterations observed during BKI-exposure: 24h, representative image
[3] = tested on: T. gondii oocyst infection; conditions: pregnant CD1 mice, ref [20]; cited from earlier work
[4] = tested on: N. caninum tachyzoites; conditions: read-out: Proliferation EC50 N.caninum, ref [25]; cited from earlier work
[5] = tested on: CRL-8155 (lymphocyte) cells; experiment: Cytotoxicity in CRL-8155 cells, Alamar Blue; assay type: cell-based, human; conditions: read-out: Cytotoxicity CC50 CRL-8155, 48h
[6] = tested on: human foreskin fibroblasts (HFF); experiment: Cytotoxicity in human foreskin fibroblasts, Alamar blue; assay type: cell-based; conditions: read-out: Cytotoxicity CC50 HFF, 3 days, 0.0009-20 μM
[7] = tested on: pregnant BALB/c mice; conditions: mouse, in vivo, 50 mg/kg/day
[8] = tested on: pregnant BALB/c mice; experiment: Assessment of BKI-interference in pregnancy in non-infected mice; conditions: for Offspring mortality (dead/born pups): 50 mg/kg/day oral gavage for 5 days, follow-up 14 days
[9] = tested on: HepG2 (hepatocyte) cells; experiment: Cytotoxicity in HepG2 cells, Alamar Blue; assay type: cell-based, human; conditions: read-out: Cytotoxicity CC50 HEP-G2, 48h
[10] = tested on: N. caninum tachyzoites; conditions: read-out: Proliferation EC50 N.caninum
[11] = tested on: Neospora-infected pregnant mice; conditions: 50mg/kg, ref [23]; cited from earlier work
[12] = tested on: rats; conditions: when dosed in rats; no reference given; cited from earlier work
[13] = 50 mg/kg/day oral gavage in corn oil for 5 days

SMILES	Embryo toxicity in the zebrafish assay (in words) [2]	CC50 [5]	CC50 [6]	Offspring mortality (dead/born pups) [8]	CC50 [9]	EC50 [10]	Fertility (pregnant/mated females) [8, 13]	also measured
CCOc1ccc2cc(-c3nn(CC4CCN(C)CC4)c4ncnc(N)c34)ccc2c1 [BKI-1294]	very low embryo toxicity	> 40 µM	> 20 µM	0/27	> 40 µM	–	–	hERG inhibition in vitro ([1]; ref [24]): inhibited; Lowest concentration exerting a negative Si [2]: ≥ 40 µM; Lowest concentration exerting a negative Si ([2]; listed as 1294): 40 µM; Offspring survival [3]: 100%; EC50 [4]: 40 nM; Overall number of pups born [7]: 27; Pups/dams ([7]; po): 27/4
CCOc1ccc2cc(-c3nn(CC4CCN(C)CC4)c4ncnc(N)c34)ccc2n1 [BKI-1369]	very low embryo toxicity	> 80 µM	> 20 µM	0/31	> 80 µM	35 nM	5/6	Pups/dams [8, 13]: 31/5
CCOc1ccc2cc(-c3nn(C(C)(C)C)c(N)c3C(N)=O)cnc2c1 [BKI-1517]	high toxicity at all concentrations	> 40 µM	> 20 µM	–	> 40 µM	269 nM	^*2/7	hERG inhibition in vitro ([1]; no reference given): did not inhibit; Embryonal alterations observed during BKI-exposure ([2]; 20 μM): tail curvature; also recorded: half-hatched embryo; Embryonal alterations observed during BKI-exposure ([2]; 50 μM): pericardial edema; Lowest concentration exerting a negative Si ([2]; listed as 1517): 0,2 μM; Lowest concentration exerting a negative Si ([2]; listed as -1517): 0.2 µM; Neonatal mortality [11]: 100%; Change in mean arterial pressure [12]: significant change in mean arterial pressure
